Results from patent US12612412B2, “Antiviral heterocyclic compounds” (Enanta Pharmaceuticals, Inc., priority 2021, dated 2026).
pEC50: −log10 of the molar value. Read-outs that look alike come from different tables or passages of the source.

Tests used:
[1] = system: HMPV clinical isolate TN/1501/A1; experiment: HMPV antiviral assay Method-B (clinical isolate TN/1501/A1 in LLC-MK2 cells, ATP-Lite readout); format: cell-based, Human metapneumovirus (HMPV); conditions: hMPV WT1501 (clinical isolate TN/1501/A1), 6 days
Outline: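 LLC-MK2 cells infected in suspension with TN/1501/A1 at MOI 0.014 in serum-free medium with 2 μg/mL TPCK-trypsin (final), incubated 6 days at 37° C. Compounds tested in duplicate, 10-point 3-fold dilutions from 10 μM. Cell health read by ATP-Lite luminescence, normalised to virus-only and cells-only controls; EC50 by four-parameter logistic fit.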

[2] = system: genotype A, "Long" strain RSV; experiment: RSV-A assay (CPE protection in Hep-2 cells, ATPlite readout); format: cell-based, Human respiratory syncytial virus (HRSV); conditions: RSV-A Long strain, MOI 0.1, CPE protection, read-out: Human RSV-A (“Long”) EC50
Outline: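 Protection from RSV-induced cytopathic effect measured by ATP content (ATPlite) after 5-day culture. Infection used genotype A Long virus at MOI 0.1 on 8,000 Hep-2 cells per well, with compound serially diluted 2-fold; values are EC50.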

[3] = human metapneumovirus, LLC-MK2, 144 h
[4] = human respiratory syncytial virus

pEC50 [1, 3]	pEC50 [2, 4]	pEC50 [1]	pEC50 [2]	SMILES
< 6.30	> 6.70			C[C@]1(C(N)=O)COc2c1cc([C@@](O)(CNC(=O)c1cc(OCC(F)F)c3nn(C4(F)CC4)cc3c1)C(F)(F)F)nc2-c1ccc(F)cc1 [Example 889]
< 6.30	> 6.70			COc1cc(C(=O)NC[C@](O)(c2cc3c(c(-c4ccc(C5CC5)cc4)n2)OC[C@]3(C)C(N)=O)C(F)(F)F)cc2cn(C3CC3)nc12 [Example 891]
> 6.30	> 6.70			COc1cc(C(=O)NC[C@](O)(c2cc3c(c(-c4ccc5c(c4)OC(F)(F)O5)n2)OC[C@]3(C)C(N)=O)C(F)(F)F)cc2cn(C3CC3)nc12 [Example 893]
< 6.30	> 6.70			COc1cc(C(=O)NC[C@](O)(c2cc3c(c(-c4ccc(C(F)F)cc4)n2)OC[C@]3(C)C(N)=O)C(F)(F)F)cc2cn(C3CC3)nc12 [Example 896]
< 6.30	> 6.70			COc1cc(C(=O)NC[C@](O)(c2cc3c(c(-c4ccc(OC(F)(F)F)cc4)n2)OC[C@]3(C)C(N)=O)C(F)(F)F)cc2cn(C3CC3)nc12 [Example 898]
< 6.30	< 6.70			COc1cc(C(=O)NCC(O)(c2cc3c(c(-c4cnc(C(F)(F)F)nc4)n2)OC[C@]3(C)C(N)=O)C(F)(F)F)cc2cn(C3CC3)nc12 (stereo partly shown) [Example 899]
> 6.30	> 6.70			COc1cc(C(=O)NC[C@](O)(c2cc3c(c(-c4ccc(F)cc4F)n2)OC[C@]3(C)C(N)=O)C(F)(F)F)cc2cn(C3CC3)nc12 [Example 901]
< 6.30	> 6.70			COc1cc(C(=O)NCC(O)(c2cc3c(c(-c4cnn(C)c4)n2)OC[C@]3(C)C(N)=O)C(F)(F)F)cc2cn(C3CC3)nc12 (stereo partly shown) [Example 903]
> 6.30	> 6.70			COc1cc(C(=O)NC[C@](O)(c2cc3c(c(-c4ccc5c(c4)OCO5)n2)OC[C@]3(C)C(N)=O)C(F)(F)F)cc2cn(C3CC3)nc12 [Example 908]
< 6.30	> 6.70			COc1cc(C(=O)NCC(O)(c2cc3c(c(-c4ccc(F)c(OC(F)F)c4)n2)OC[C@]3(C)C(N)=O)C(F)(F)F)cc2cn(C3CC3)nc12 (stereo partly shown) [Example 909]
> 6.30	> 6.70			COc1cc(C(=O)NC[C@](O)(c2cc3c(c(-c4ccccc4F)n2)OC[C@]3(C)C(N)=O)C(F)(F)F)cc2cn(C3CC3)nc12 [Example 911]
> 6.30	> 6.70			COc1cc(C(=O)NC[C@](O)(c2cc3c(c(-c4cccc(F)c4)n2)OC[C@]3(C)C(N)=O)C(F)(F)F)cc2cn(C3CC3)nc12 [Example 912]
< 6.30	< 6.70			COc1cc(-c2nc([C@](O)(CNC(=O)c3cc(OC)c4nn(C5CC5)cc4c3)C(F)(F)F)cc3c2OC[C@]3(C)C(N)=O)ccc1F [Example 913]
< 6.30	> 6.70			COc1cc(-c2nc([C@@](O)(CNC(=O)c3cc(OC)c4nn(C5CC5)cc4c3)C(F)(F)F)cc3c2OC[C@]3(C)C(N)=O)ccc1F [Example 914]
> 6.30	> 6.70			COc1cc(C(=O)NC[C@](O)(c2cc3c(c(-c4ccc(F)c(F)c4F)n2)OC[C@]3(C)C(N)=O)C(F)(F)F)cc2cn(C3CC3)nc12 [Example 915]
> 6.30	> 6.70			COc1cc(C(=O)NCC(O)(c2cc3c(c(-c4cc(F)c(F)c(F)c4)n2)OC[C@]3(C)C(N)=O)C(F)(F)F)cc2cn(C3CC3)nc12 (stereo partly shown) [Example 916]
< 6.30	> 6.70			COc1cc(C(=O)NC[C@@](O)(c2cc3c(c(-c4cccc(OC(F)F)c4)n2)OC[C@]3(C)C(N)=O)C(F)(F)F)cc2cn(C3CC3)nc12 [Example 917]
< 6.30	> 6.70			COc1cc(C(=O)NC[C@](O)(c2cc3c(c(-c4cccc(OC(F)F)c4)n2)OC[C@]3(C)C(N)=O)C(F)(F)F)cc2cn(C3CC3)nc12 [Example 918]
< 6.30	< 6.70			COc1cc(C(=O)NC[C@@](O)(c2cc3c(c(-c4ccc(OC(F)F)c(F)c4)n2)OC[C@]3(C)C(N)=O)C(F)(F)F)cc2cn(C3CC3)nc12 [Example 919]
> 6.30	> 6.70			COc1cc(C(=O)NC[C@](O)(c2cc3c(c(-c4ccc(OC(F)F)c(F)c4)n2)OC[C@]3(C)C(N)=O)C(F)(F)F)cc2cn(C3CC3)nc12 [Example 920]
< 6.30	< 6.70			COc1cc(C(=O)NC[C@@](O)(c2cc3c(c(-c4cccc(Cl)c4F)n2)OC[C@]3(C)C(N)=O)C(F)(F)F)cc2cn(C3CC3)nc12 [Example 921]
> 6.30	> 6.70			COc1cc(C(=O)NC[C@](O)(c2cc3c(c(-c4cccc(Cl)c4F)n2)OC[C@]3(C)C(N)=O)C(F)(F)F)cc2cn(C3CC3)nc12 [Example 922]

pEC50 [1, 3]	pEC50 [2, 4]	pEC50 [1]	pEC50 [2]	SMILES
< 6.30	< 6.70			COc1ccc(-c2nc([C@](O)(CNC(=O)c3cc(OC)c4nn(C5CC5)cc4c3)C(F)(F)F)cc3c2OC[C@]3(C)C(N)=O)cc1 [Example 923]
< 6.30	> 6.70			COc1ccc(-c2nc([C@@](O)(CNC(=O)c3cc(OC)c4nn(C5CC5)cc4c3)C(F)(F)F)cc3c2OC[C@]3(C)C(N)=O)cc1 [Example 924]
< 6.30	> 6.70			COc1cc(C(=O)NC[C@@](O)(c2cc3c(c(-c4ccc(OC(F)F)cc4)n2)OC[C@]3(C)C(N)=O)C(F)(F)F)cc2cn(C3CC3)nc12 [Example 925]
< 6.30	> 6.70			COc1cc(C(=O)NC[C@](O)(c2cc3c(c(-c4ccc(OC(F)F)cc4)n2)OC[C@]3(C)C(N)=O)C(F)(F)F)cc2cn(C3CC3)nc12 [Example 926]
< 6.30	> 6.70			COc1cc(C(=O)NCC(O)(c2cc3c(c(-c4ccc(OC(F)(F)F)c(F)c4)n2)OC[C@]3(C)C(N)=O)C(F)(F)F)cc2cn(C3CC3)nc12 (stereo partly shown) [Example 927]
< 6.30	> 6.70			COc1cc(C(=O)NC[C@](O)(c2cc3c(c(-c4cccc5c4OC(F)(F)O5)n2)OC[C@]3(C)C(N)=O)C(F)(F)F)cc2cn(C3CC3)nc12 [Example 928]
> 6.30	> 6.70			COc1cc(C(=O)NC[C@](O)(c2cc3c(c(-c4ccc(Cl)c(F)c4F)n2)OC[C@]3(C)C(N)=O)C(F)(F)F)cc2cn(C3CC3)nc12 [Example 929]
> 6.30	> 6.70			COc1cc(C(=O)NC[C@](O)(c2cc3c(c(-c4ccc(F)c(Cl)c4F)n2)OC[C@]3(C)C(N)=O)C(F)(F)F)cc2cn(C3CC3)nc12 [Example 930]
> 6.30	> 6.70			COc1cc(C(=O)NCC(O)(c2cc3c(c(-c4cc(F)c(F)c(Cl)c4)n2)OC[C@]3(C)C(N)=O)C(F)(F)F)cc2cn(C3CC3)nc12 (stereo partly shown) [Example 931]
> 6.30	> 6.70			COc1cc(C(=O)NC[C@](O)(c2cc3c(c(-c4cc(F)c(Cl)cc4F)n2)OC[C@]3(C)C(N)=O)C(F)(F)F)cc2cn(C3CC3)nc12 [Example 932]
< 6.30	> 6.70			COc1ccc(-c2nc([C@@](O)(CNC(=O)c3cc(OC)c4nn(C5CC5)cc4c3)C(F)(F)F)cc3c2OC[C@]3(C)C(N)=O)cc1Cl [Example 933]
< 6.30	> 6.70			COc1cc(-c2nc([C@@](O)(CNC(=O)c3cc(OC)c4nn(C5CC5)cc4c3)C(F)(F)F)cc3c2OC[C@]3(C)C(N)=O)ccc1Cl [Example 934]
< 6.30	> 6.70			COc1cc(C(=O)NC[C@](O)(c2cc3c(c(-c4ccc(Cl)c(Cl)c4)n2)OC[C@]3(C)C(N)=O)C(F)(F)F)cc2cn(C3CC3)nc12 [Example 935]
> 6.30	> 6.70			COc1cc(C(=O)NC[C@](O)(c2cc3c(c(-c4csc5c(F)cccc45)n2)OC[C@]3(C)C(N)=O)C(F)(F)F)cc2cn(C3CC3)nc12 [Example 936]
< 6.30	< 6.70			COc1cc(C(=O)NC[C@](O)(c2cc3c(c(-c4csc5c(Cl)cccc45)n2)OC[C@]3(C)C(N)=O)C(F)(F)F)cc2cn(C3CC3)nc12 [Example 937]
< 6.30	< 6.70			COc1cc(C(=O)NC[C@](O)(c2cc3c(c(-c4ccc5nn(C(F)F)cc5c4)n2)OC[C@]3(C)C(N)=O)C(F)(F)F)cc2cn(C3CC3)nc12 [Example 938]
< 6.30	> 6.70			COc1cc(C(=O)NC[C@](O)(c2cc3c(c(-c4ccc5c(ccn5C(F)F)c4)n2)OC[C@]3(C)C(N)=O)C(F)(F)F)cc2cn(C3CC3)nc12 [Example 939]
		< 6.30	> 6.70	COc1cc(C(=O)NCC(O)(c2cc3c(c(-c4ccc5ccn(C(F)F)c5c4)n2)OCC3(C)C(N)=O)C(F)(F)F)cc2cn(C3CC3)nc12 (stereo not shown) [Example 940]
< 6.30	< 6.70			COc1cc(C(=O)NC[C@](O)(c2cc3c(c(-c4ccc5cn(C(F)F)nc5c4)n2)OC[C@]3(C)C(N)=O)C(F)(F)F)cc2cn(C3CC3)nc12 [Example 941]
< 6.30	< 6.70			COc1cc(-c2nc([C@@](O)(CNC(=O)c3cc(OC)c4nn(C5CC5)cc4c3)C(F)(F)F)cc3c2OC[C@]3(C)C(N)=O)cc2cn(C(F)F)nc12 [Example 942]
< 6.30	> 6.70			COc1cc(C(=O)NC[C@](O)(c2cc3c(c(-c4csc5ccccc45)n2)OC[C@]3(C)C(N)=O)C(F)(F)F)cc2cn(C3CC3)nc12 [Example 943]
< 6.30	> 6.70			COc1cc(C(=O)NC[C@](O)(c2cc3c(c(-c4csc5ccc(F)cc45)n2)OC[C@]3(C)C(N)=O)C(F)(F)F)cc2cn(C3CC3)nc12 [Example 944]
